From ChEMBL document CHEMBL3507680, “University of Dundee, Gates Library screen for HepG2 cell viability” come the findings set out here.

The nature of this data set: Human HepG2 cell viability assay in 384 well format. The class given is toxicity, cell-based. Also on record: dose 125 nL, time 70.5 hour; cytotoxicity at 70.5 h: concentration not given beside the values. To be noted: HepG2 cells, read-out: Inhibition.
Consider `CCCc1nc(C)c(C(=O)NCC2CCN(C3CC3)C2)s1` (stereo not given), for which the cytotoxicity at 70.5 h came to 23.6%.

With `CCCC(C)N(C)Cc1nnc(-c2ccc(Br)s2)o1` (stereo not given), the cytotoxicity at 70.5 h is -4.09%.

Take `NC(=O)CCn1nnc(-c2cc3ccccc3o2)n1`: the cytotoxicity at 70.5 h is -13.1%.

`COc1ccccc1C(O)CNC(=O)NCc1cc[nH]n1` (stereo not given): the cytotoxicity at 70.5 h is -4.26%.

For `Cc1cccc2c1cnn2CCC(=O)NCC(=O)N(C)C`, the cytotoxicity at 70.5 h was -9.91%.

Turning to `COCCN(Cc1ccncc1)C(=O)C1COc2c(cccc2OC)C1` (stereo not given), the cytotoxicity at 70.5 h is 0.81%.

Take `CN(CCCc1cc(-c2cccc(F)c2)n[nH]1)C(=O)Cn1cncn1`: the cytotoxicity at 70.5 h amounted to 22.1%.

On to `Cc1csc(CCCNC(=O)NC2CC(=O)N(C(C)(C)C)C2)n1` (stereo not given), for which the cytotoxicity at 70.5 h was -2.05%.

For the compound `Cn1cc(N2CC3(CCN(Cc4cccnc4)CC3)OCC2=O)cn1`, the cytotoxicity at 70.5 h was -3.89%.

As to `CC(C)(C)OC(=O)NCCC(=O)N(CCC#N)Cc1ccco1`, the cytotoxicity at 70.5 h is -0.853%.

Turning to `CCS(=O)(=O)N1CCC2(CC1)CN(c1cncnc1)C(=O)CO2`, the cytotoxicity at 70.5 h is -15.9%.

Regarding `O=C1CCCN1Cc1ncn2c1CN(C(=O)c1cccc(F)c1)CCC2`, the cytotoxicity at 70.5 h is -13.4%.

In the case of `COc1cccc(CCC2CCCN(C(=O)c3n[nH]c4c3CCC4)C2)c1` (stereo not given), the cytotoxicity at 70.5 h is 0.453%.

Turning to `CS(=O)(=O)N1CCC(c2nnc(Cn3ccnc3)n2C2CC2)CC1`, the cytotoxicity at 70.5 h was -3.52%.

For `CCn1[nH]c(C)c2c(C(F)(F)F)cc(=O)nc1-2`, the cytotoxicity at 70.5 h was -4.81%.

Take `O=C(c1cc(C2CCCC2)no1)N1CCCCC1`: the cytotoxicity at 70.5 h was -15.8%.

For `Cc1csc(CN2CC[C@H]3C[C@@H](c4noc(C)n4)O[C@@H]3C2)n1`, the cytotoxicity at 70.5 h was -0.439%.

As for `CCn1nc(C)c(CNC(=O)c2cn(CCC3CCCCN3)nn2)c1C` (stereo not given), the cytotoxicity at 70.5 h was -7.47%.

As to `CC(=O)Nc1ccc(CNC(=O)CNCc2sc(C)nc2C)cc1`, the cytotoxicity at 70.5 h amounted to 6.71%.

Take `O=C1CC(c2ccc3c(c2)OCO3)c2snc(C(=O)O)c2N1` (stereo not given): the cytotoxicity at 70.5 h is -10.6%.

Consider `c1cc(-c2c[nH]c([C@@H]3COCCN3C3CCOCC3)n2)ccn1`, for which the cytotoxicity at 70.5 h is -0.86%.

In the case of `Cc1nn(C)c(Cl)c1C1CCCN1C(=O)c1cnn(C)c1C1CC1` (stereo not given), the cytotoxicity at 70.5 h is -14.5%.

As to `Cn1cc(C(=O)CC2CCCN2C(=O)c2cccc3ncccc23)cn1` (stereo not given), the cytotoxicity at 70.5 h worked out at 14.5%.

For `CCc1cnc2c(c1Nc1ccccc1OC)c(=O)n(C)c(=O)n2C`, the cytotoxicity at 70.5 h amounted to 5.02%.

In the case of `CN(C(=O)NCC1(CN2CCOCC2)CCCCC1)C1CC1`, the cytotoxicity at 70.5 h was -4.71%.

On to `O=C(Nc1ccc(F)cc1-c1nc(C2CC2)no1)N1CC[C@@H](O)C1`, for which the cytotoxicity at 70.5 h is -6.37%.

For the compound `CNCC(=O)NC1CC(C)(C)Cc2nc(C(C)(C)C)ncc21` (stereo not given), the cytotoxicity at 70.5 h was -18.9%.

For the compound `COc1ccc(CNc2c(C)cnc3c2c(=O)n(C)c(=O)n3C)cc1`, the cytotoxicity at 70.5 h stood at 7.6%.

For `N#CCCN(Cc1ccco1)C(=O)Cc1ccc(-n2cnnn2)cc1`, the cytotoxicity at 70.5 h is -6.73%.

As to `CCC(=O)N1CCC(Cc2ccccc2-c2ccncc2)(C(=O)NC)C1` (stereo not given), the cytotoxicity at 70.5 h is -7.46%.

For `COC(=O)CNC(=O)C(C(C)C)n1cnc2cc(F)c(F)cc21` (stereo not given), the cytotoxicity at 70.5 h worked out at 5.81%.

On to `CCSCCNC(=O)c1cnc(-c2ccccc2)nc1O`, for which the cytotoxicity at 70.5 h was 7.82%.

For `CCOc1ncccc1CNC(=O)Nc1cc(C)nn1C`, the cytotoxicity at 70.5 h is -4.27%.

For `CCNC(=O)c1ccc(NC2CCOC3(CCCC3)C2)nn1` (stereo not given), the cytotoxicity at 70.5 h was determined as 17%.

In the case of `COc1cc(CCC(=O)NCC2CCCN2C)ccc1OCC(F)(F)F` (stereo not given), the cytotoxicity at 70.5 h is -7.43%.

Turning to `COCCN1CCCN(C(=O)c2oc(C)nc2C)CC1`, the cytotoxicity at 70.5 h was -7.73%.

Regarding `CN(C)C(=O)Cc1ccc(NC(=O)NC2CC2)cc1`, the cytotoxicity at 70.5 h was -3.59%.

Consider `Cc1cc(C(=O)N2CCN(C)CC2)nn1CC(=O)NCc1ccccn1`, for which the cytotoxicity at 70.5 h was -8.07%.

Take `Cc1[nH]ccc1C(=O)N(Cc1ccc(O)cc1)CC1CC1`: the cytotoxicity at 70.5 h is -3.9%.

`CN(C)C1(C(=O)NC2CCC(Oc3ccccc3C#N)CC2)CCC1` (stereo not given): the cytotoxicity at 70.5 h is -4.33%.

For the compound `Cc1ccnc(C2CCN(CCCOc3ccccc3F)C2)n1` (stereo not given), the cytotoxicity at 70.5 h was -1.63%.

For `Cc1ccc(CN2CCOC3(CCN(C(=O)C4CCOC4)CC3)C2)cc1` (stereo not given), the cytotoxicity at 70.5 h was -1.7%.

Consider `Cc1nc2ccccc2nc1NCc1nnc2n1CCC2`, for which the cytotoxicity at 70.5 h stood at 0.938%.

Regarding `Cc1nc(CN2CCOC(Cn3cncn3)C2)nc2ccccc12` (stereo not given), the cytotoxicity at 70.5 h was -16.8%.

For the compound `Cc1nn(C)c(N(C)C)c1CNCCC(=O)NC1CCCCC1`, the cytotoxicity at 70.5 h is -0.221%.

For `Cc1ccccc1OCCC(=O)N1CCC(c2nncn2C)CC1`, the cytotoxicity at 70.5 h was -0.859%.

As to `Cc1cc(=O)c2ccccc2n1CC1CCNC1` (stereo not given), the cytotoxicity at 70.5 h was -1.77%.

For the compound `Cc1cc(C)n(CC(=O)N2C[C@@H]3CC[C@H](C2)N(CC2CCC2)C3)c(=O)n1`, the cytotoxicity at 70.5 h is 24.1%.

As for `CCCN1CCC(c2nc3ccc(-c4cccc(OC)c4)cn3n2)CC1`, the cytotoxicity at 70.5 h was -1.57%.

In the case of `O=C(NCCCOCC1CC1)Nc1cccnc1N1CCOCC1`, the cytotoxicity at 70.5 h was -5.01%.

Regarding `Cc1cc(-c2c(C)c(-c3cnn(C)c3)nc(N)c2C#N)oc1C`, the cytotoxicity at 70.5 h was found to be 37.4%.

As to `CN(C)[C@@H]1CCN(C(=O)Cc2ccc(F)cc2)[C@H]1Cc1ccncc1`, the cytotoxicity at 70.5 h is -15.9%.

Turning to `CN(C)C(=O)C1CCC2(CCN(C(=O)Nc3ccccc3)CC2)O1` (stereo not given), the cytotoxicity at 70.5 h is -8%.

With `Cc1noc(C2CCCN(C(=O)CCCNc3ncccn3)C2)n1` (stereo not given), the cytotoxicity at 70.5 h was 3.05%.

In the case of `O=S(=O)(C1CC1)N1CC[C@@H]2[C@@H]1CCN2Cc1cccs1`, the cytotoxicity at 70.5 h is -6.17%.

Take `O=C(NCCNC1CCN(c2nccs2)CC1)c1cccs1`: the cytotoxicity at 70.5 h is -9.14%.

In the case of `CSC(C)CCN1CCC(n2cc(C3CCCCC3)nn2)CC1` (stereo not given), the cytotoxicity at 70.5 h is -1.37%.

Regarding `COCc1nnc(-c2cccc(C(=O)N(C)CC(C)(C)C)c2)o1`, the cytotoxicity at 70.5 h was -14.1%.

As for `O=C(NC[C@H]1C[C@@H]2CCN1C[C@@H]2CN1CCCCC1)Nc1ccccc1`, the cytotoxicity at 70.5 h is -1.01%.

On to `Cc1noc(C)c1CN1C[C@H](C)[C@]2(CCN(Cc3cccnc3)C2=O)C1`, for which the cytotoxicity at 70.5 h is -8.9%.

On to `Cn1cccc1C(=O)N1CCc2ccc(=O)n(C)c2CC1`, for which the cytotoxicity at 70.5 h was -6.17%.

Take `O=C(CSc1nc2c(cnn2CCO)c(=O)[nH]1)NC1CCCCC1`: the cytotoxicity at 70.5 h turned out to be 14.1%.

For `Cc1csc(CN2CCC3(CC2)COC(COc2ccccn2)C3)n1` (stereo not given), the cytotoxicity at 70.5 h is -5.82%.

`CC(C)(C)c1cc(C[C@H]2CNCC[C@H]2CC(=O)NC2CCCCC2)no1`: the cytotoxicity at 70.5 h was determined as 2.18%.

For `Cc1nn(C)c(C)c1CCC(=O)N1CCCOC(Cn2cccn2)C1` (stereo not given), the cytotoxicity at 70.5 h is -2.69%.

Consider `Cc1nn(C)c(C)c1-c1cc(-c2cnn(C)c2C2CC2)c(C#N)c(N)n1`, for which the cytotoxicity at 70.5 h was -12.7%.

Regarding `CCCNc1ncc(CN2CCC3(CCNC(=O)CC3)CC2)cn1`, the cytotoxicity at 70.5 h is -3.92%.

With `COc1c(C)cnc(CN2CCOC(Cn3cc(C)cn3)C2)c1C` (stereo not given), the cytotoxicity at 70.5 h came out at 0.484%.

Turning to `CCN(C(=O)CNC1CCc2ncnn2C1)C1=CCCCC1` (stereo not given), the cytotoxicity at 70.5 h is 4.5%.

`CC(=O)N(C)c1nc(CN2CCN(c3nccs3)CC2)cs1`: the cytotoxicity at 70.5 h is -5.68%.
